Test results: the C3SDB collision cross section collection

Conditions: [M+H-H2O]+; instrument: TW; calibrated with polyalanine and drug standards

Row | collision cross section (N2) | Compound
1 | 210.6 Å² | CC1(C)CC[C@]2(C(=O)O)CC[C@]3(C)C(=CC[C@@H]4[C@@]5(C)CC[C@H](O)[C@@](C)(CO)[C@@H]5CC[C@]43C)[C@@H]2C1 [HEDERAGENIN]
2 | 127.5 Å² | Cc1cc(O)c(C)c(O)c1C(=O)O [3-METHYLORSELLINIC ACID]

Same assay, conditions: [M+H]+; instrument: TW; calibrated with polyalanine and drug standards

Row | Compound | collision cross section (N2)
3 | C=CCOC(Cn1ccnc1)c1ccc(Cl)cc1Cl (stereo unspecified) [ENILCONAZOLE] | 165.2 Å²
4 | O=C(CCCN1CCC2(CC1)C(=O)NCN2c1ccccc1)c1ccc(F)cc1 [SPIPERONE] | 193.8 Å²
5 | CC(=O)[C@@]1(O)CC[C@H]2[C@@H]3CCC4=CC(=O)CC[C@]4(C)[C@H]3CC[C@@]21C [HYDROXYPROGESTERONE] | 179.9 Å²
6 | CCCSc1ccc2nc(NC(=O)OC)[nH]c2c1 [ALBENDAZOLE] | 162 Å²
7 | Oc1ccc(Cl)cc1Cc1cc(Cl)ccc1O [DICHLOROPHENE] | 147.4 Å²
8 | CCCC(=O)Nc1ncnc2c1ncn2[C@@H]1O[C@@H]2COP(=O)(O)O[C@H]2[C@H]1OC(=O)CCC [BUCLADESINE] | 215.3 Å²
9 | C[C@H]1C(=O)O[C@@H]2CCN3CC=C(COC(=O)[C@](C)(O)[C@]1(C)O)[C@H]23 [MONOCROTALINE] | 172.9 Å²
10 | CN=C(NC#N)NCCSCc1nc[nH]c1C [CIMETIDINE] | 155.7 Å²
11 | O=C(O)CCCc1ccc(N(CCCl)CCCl)cc1 [CHLORAMBUCIL] | 168.7 Å²
12 | COC(=O)[C@]1(C)CC[C@]2(C)CC[C@]3(C)C4=CC=C5C(=CC(=O)C(O)=C5C)[C@]4(C)CC[C@@]3(C)[C@@H]2C1 [PRISTIMERIN] | 211.2 Å²
13 | COc1cc2occc2c2oc(=O)ccc12 [ISOBERGAPTENE] | 139.8 Å²
14 | CCOC(=O)c1c(C)cc(O)c(C=O)c1O [HAEMATOMMIC ACID, ETHYL ESTER] | 144 Å²
15 | NC(=O)c1ccc[n+]([C@@H]2O[C@H](COP(=O)([O-])OP(=O)(O)OC[C@H]3O[C@@H](n4cnc5c(N)ncnc54)[C@H](O)[C@@H]3O)[C@@H](O)[C@H]2O)c1 [NADIDE] | 227 Å²
16 | CC(C)(C)c1ccc(C(O)CCCN2CCC(C(O)(c3ccccc3)c3ccccc3)CC2)cc1 (stereo unspecified) [TERFENADINE] | 226.8 Å²
17 | COC(=O)N=N/C=C1\C=[N+]([O-])c2ccccc2N1O [CARBADOX] | 153.9 Å²
18 | CN(C)c1nc(N(C)C)nc(N(C)C)n1 [ALTRETAMINE] | 145.6 Å²
19 | CCCN(CCC)S(=O)(=O)c1ccc(C(=O)O)cc1 [PROBENECID] | 161.4 Å²
20 | COc1cc(OC)c(OC)cc1C=O [ASARYLALDEHYDE] | 138.3 Å²
21 | CN/C(=C\[N+](=O)[O-])NCCSCc1csc(CN(C)C)n1 [NIZATIDINE] | 169.1 Å²
22 | OC[C@H]1O[C@@H](n2cnc3c(NCc4ccco4)ncnc32)[C@H](O)[C@@H]1O [KINETIN RIBOSIDE] | 179 Å²
23 | N[C@@H](COCc1ccccc1)C(=O)O [O-BENZYL-l-SERINE] | 142.5 Å²
24 | O=c1[nH]c2ccccc2n1CCCN1CCC(n2c(=O)[nH]c3cc(Cl)ccc32)CC1 [DOMPERIDONE] | 201.8 Å²
25 | CC(O)Cn1cnc2c1c(=O)n(C)c(=O)n2C (stereo unspecified) [PROXYPHYLLINE] | 149.1 Å²
26 | O=c1[nH]c2cc(Cl)c(Cl)cc2[nH]c1=O [2,3-DIHYDROXY-6,7-DICHLOROQUINOXALINE] | 143 Å²
27 | OCCN1CCN(CCCN2c3ccccc3Sc3ccc(Cl)cc32)CC1 [PERPHENAZINE] | 192 Å²
28 | CCCCC(=O)O[C@]1(C(=O)CO)[C@@H](C)C[C@H]2[C@@H]3CCC4=CC(=O)C=C[C@]4(C)[C@@]3(F)[C@@H](O)C[C@@]21C [BETAMETHASONE VALERATE] | 214 Å²

Other lines, results leading:

Row | collision cross section (N2) | Compound
29 | 153.2 Å² | O=c1cc(-c2ccc(O)cc2)oc2cc(O)ccc12 [7,4'-DIHYDROXYFLAVONE]
30 | 195.4 Å² | COc1cc(-c2coc3cc(OC)c(OC)c(OC)c3c2=O)cc(OC)c1OC [IRIGENIN TRIMETHYL ETHER]
31 | 177.2 Å² | CCCCC1C(=O)N(c2ccccc2)N(c2ccc(O)cc2)C1=O (stereo unspecified) [OXYPHENBUTAZONE]
32 | 190.3 Å² | COc1ccc(-c2c(O)c3c(OC)c4c(cc3oc2=O)OC(C)(C)C=C4)cc1 [ROBUSTIC ACID]
33 | 186.9 Å² | COc1c2c(cc3occ(-c4ccc5c(c4)OCO5)c(=O)c13)OC(C)(C)C=C2 [METHYL ROBUSTONE]
34 | 187.4 Å² | CC1(C)S[C@@H]2[C@H](NC(=O)[C@H](N)c3ccc(O)cc3)C(=O)N2[C@H]1C(=O)O [AMOXICILLIN]
35 | 191 Å² | COc1ccc2c(c1)c(CC(=O)OCC(=O)O)c(C)n2C(=O)c1ccc(Cl)cc1 [ACEMETACIN]
36 | 170.8 Å² | Cc1cc(NC(=O)C2=C(O)c3ccccc3S(=O)(=O)N2C)no1 [ISOXICAM]
37 | 146.5 Å² | COc1ccc(C(=O)c2ccccc2)c(O)c1 [OXYBENZONE]
38 | 156.3 Å² | O=C(Nc1ccc(C(=O)O)c(O)c1)c1ccccc1 [BENZOYLPAS]
39 | 133.6 Å² | COc1cc2ccc(=O)oc2cc1O [SCOPOLETIN]
40 | 159.4 Å² | O=C(O)c1cccnc1Nc1cccc(C(F)(F)F)c1 [NIFLUMIC ACID]
41 | 137.8 Å² | Cc1cc(=O)n(-c2ccccc2)n1C [ANTIPYRINE]
42 | 142.6 Å² | O=C1c2c(O)cccc2Cc2cccc(O)c21 [ANTHRALIN]
43 | 227.2 Å² | COc1cc(-c2coc3cc(O[C@@H]4O[C@H](CO)[C@@H](O)[C@H](O)[C@H]4O)c(OC)c(O)c3c2=O)cc(O)c1OC [IRIDIN]
44 | 175.1 Å² | COc1ccc2c(c1)O[C@@H]1COc3cc(OC)c(OC)cc3[C@@H]1C2=O [MUNDOSERONE]
45 | 140 Å² | COc1ccc2cc([C@H](C)CO)ccc2c1 [NAPROXOL]
46 | 202.9 Å² | CC1(C)C(=O)[C@@H]2C[C@@]3(O)C4=CC(=O)O[C@@H](c5ccoc5)[C@]4(C)CCC3C(C)(C2=O)[C@H]1CC(=O)O (stereo partly specified) [8-HYDROXYCARAPINIC ACID]
47 | 148 Å² | COc1ccc2cc(CCC(C)=O)ccc2c1 [NABUMETONE]
48 | 145.4 Å² | COC1=CC(=O)C(C(=O)c2ccccc2)=CC1=O [2-BENZOYL-5-METHOXYBENZOQUINONE]
49 | 154.9 Å² | O=c1c(O)c(-c2ccccc2)oc2cc(O)cc(O)c12 [GALANGIN]
50 | 151.7 Å² | O=c1cc(-c2ccccc2)oc2cc(O)cc(O)c12 [CHRYSIN]

Same assay, conditions: [M+Na]+; instrument: TW; calibrated with polyalanine and drug standards

Row | collision cross section (N2) | Compound
51 | 174.3 Å² | OC[C@@H](O)[C@@H](O[C@@H]1O[C@H](CO)[C@@H](O)[C@H](O)[C@H]1O)[C@H](O)[C@@H](O)CO [GLUCITOL-4-GUCOPYANOSIDE]
